Test results reported in the Kinase Knowledgebase extract (Sharma et al. 2016).

Molecular target: MAPK14 (human) (UniProt Q16539)
Assay: Inhibition of MAPK14 Kinase Assay

Chain of MAPK14 (human) (Q16539 whole entry, looked up): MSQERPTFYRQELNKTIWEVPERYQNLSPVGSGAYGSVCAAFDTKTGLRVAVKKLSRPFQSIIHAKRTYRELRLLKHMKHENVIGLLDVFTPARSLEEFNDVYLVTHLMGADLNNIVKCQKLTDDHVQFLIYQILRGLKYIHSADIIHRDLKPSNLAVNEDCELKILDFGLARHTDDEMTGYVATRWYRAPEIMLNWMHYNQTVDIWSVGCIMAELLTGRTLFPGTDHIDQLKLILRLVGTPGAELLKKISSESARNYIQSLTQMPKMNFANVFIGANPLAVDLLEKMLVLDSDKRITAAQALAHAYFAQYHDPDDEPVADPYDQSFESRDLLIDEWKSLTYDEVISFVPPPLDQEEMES

IC50 | Structure (SMILES)
113 nM | O=C(Cc1ccc(F)cc1)Nc1onc(-c2ccc(F)cc2)c1-c1ccncc1
29 nM | Cn1nc(-c2ccc(F)cc2)c(-c2ccncc2)c1NC(=O)Cc1ccc(F)cc1
873 nM | CSc1nc(-c2ccc(F)cc2)c(-c2ccncc2)n1NC(=O)c1cc2ccccc2o1
71 nM | Cn1nc(-c2ccc(F)cc2)c(-c2ccncc2)c1NC(=O)Cc1ccccc1Cl
840 nM | CSc1nc(-c2ccc(F)cc2)c(-c2ccncc2)n1NC(C)=O
107 nM | CC(C(=O)Nc1onc(-c2ccc(F)cc2)c1-c1ccncc1)c1ccccc1 (stereo not given)
95 nM | CSc1nc(-c2ccc(F)cc2)c(-c2ccncc2)n1NC(=O)C(C)c1ccccc1 (stereo not given)
314 nM | CSc1nc(-c2ccc(F)cc2)c(-c2ccncc2)n1NC(=O)c1ccccc1
1880 nM | CSc1nc(-c2ccc(F)cc2)c(-c2ccncc2)n1N
145 nM | CSc1nc(-c2ccc(F)cc2)c(-c2ccncc2)n1NC(=O)Nc1ccc(F)cc1
1080 nM | CSc1nc(-c2ccc(F)cc2)c(-c2ccncc2)n1NC(=O)COc1ccccc1
244 nM | CSc1nc(-c2ccc(F)cc2)c(-c2ccncc2)n1NC(=O)Cc1ccc(F)cc1
242 nM | CSc1nc(-c2ccc(F)cc2)c(-c2ccncc2)n1NC(=O)c1ccc(C)c(F)c1
58 nM | CSc1nc(-c2ccc(F)cc2)c(-c2ccncc2)n1NC(=O)Cc1ccccc1Cl
308 nM | CSc1nc(-c2ccc(F)cc2)c(-c2ccncc2)n1NC(=O)c1ccco1
